The values that follow come from PubChem BioAssay (NCI).

Molecules are shown by their SMILES.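 How tested: cells in 96-well plates exposed to compound for 48 hours at five concentrations. Definition used: TGI = concentration required for complete inhibition of growth.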

Test systems include HL-60(TB) leukemia; A549 NSCLC; DU-145 prostate; HCT-116 colon; SF-539 CNS; SF-295 CNS; UO-31 renal; SNB-19 CNS; SK-MEL-5 melanoma; MCF7 breast; A498 renal; OVCAR-3 ovarian; NCI-H460 lung; SNB-75 CNS; HOP-92 NSCLC; UACC-257 melanoma; M14 melanoma; UACC-62 melanoma; T-47D breast.
Common to all, as to experiment: growth of human tumour cells (NCI), 48 h

In the case of `CN(C)Cc1cc(C=O)cc(CN(C)C)c1O`, the TGI in the experiment with HL-60(TB) leukemia, in the experiment with A549 NSCLC, with DU-145 prostate, in the experiment on HCT-116 colon, in the experiment with SF-539 CNS and in the experiment with SF-295 CNS was above 100 µM each time. Also, the TGI in the experiment with UO-31 renal, in the experiment on SNB-19 CNS, in the experiment with SK-MEL-5 melanoma, with MCF7 breast, in the experiment on A498 renal and in the experiment on OVCAR-3 ovarian was above 100 µM throughout. The TGI in the experiment with NCI-H460 lung, in the experiment on SNB-75 CNS, with HOP-92 NSCLC and with UACC-257 melanoma was above 100 µM each time.
For the compound `CNc1nnc(CNc2ccc(-c3nnc(NC)n3N)cc2)n1N`, the TGI in the experiment with HL-60(TB) leukemia, in the experiment with A549 NSCLC, with DU-145 prostate, in the experiment with HCT-116 colon, in the experiment on M14 melanoma and in the experiment with SF-539 CNS was above 100 µM in each case. Moreover, the TGI with SF-295 CNS, in the experiment on UO-31 renal, in the experiment on SNB-19 CNS, with SK-MEL-5 melanoma, in the experiment with MCF7 breast and in the experiment on A498 renal was above 100 µM throughout. The TGI with OVCAR-3 ovarian, in the experiment on NCI-H460 lung, in the experiment with SNB-75 CNS, with HOP-92 NSCLC and with UACC-257 melanoma was above 100 µM each time.
Consider `COc1ccc2c(ccc3c(COC(=O)NC(C)C)c(COC(=O)NC(C)C)n(C)c32)c1`, for which the TGI in the experiment on A549 NSCLC is 55.2 µM; in the experiment with HCT-116 colon, 17.4 µM; with M14 melanoma, 22.1 µM; in the experiment with SF-539 CNS, 20.9 µM; with SF-295 CNS it was 46.2 µM; in the experiment with UO-31 renal it was 28.9 µM. In addition, the TGI in the experiment with SNB-19 CNS was above 100 µM; in the experiment with SK-MEL-5 melanoma it was 28.4 µM; in the experiment on MCF7 breast, 93.5 µM; with UACC-62 melanoma it was 18.4 µM; in the experiment with A498 renal, 21 µM; in the experiment with OVCAR-3 ovarian, 26.8 µM. The TGI with NCI-H460 lung is 2.04 µM; with SNB-75 CNS, 15.8 µM; in the experiment with HOP-92 NSCLC, 27.2 µM; in the experiment on T-47D breast it was 82.6 µM; in the experiment on UACC-257 melanoma, 27.1 µM.
For the compound `O=C1C(=Cc2cccc(O)c2)N=C(c2ccccc2)N1n1c(-c2ccccc2)nc2ccccc2c1=O`, the TGI is 54 µM in the experiment with HL-60(TB) leukemia; above 100 µM in the experiment with A549 NSCLC; 74.5 µM in the experiment on DU-145 prostate; 43.2 µM with HCT-116 colon; above 100 µM in the experiment on M14 melanoma; 51.3 µM in the experiment on SF-539 CNS. Besides, the TGI with SF-295 CNS came out at 65.6 µM; in the experiment on UO-31 renal, 61.1 µM; in the experiment on SNB-19 CNS, 72.7 µM; with SK-MEL-5 melanoma, 48 µM; with UACC-62 melanoma, 50.9 µM; with A498 renal it was 72.4 µM. Further, the TGI amounted to 70.1 µM with OVCAR-3 ovarian; 59.8 µM with NCI-H460 lung; 66 µM with HOP-92 NSCLC; 91.7 µM in the experiment on T-47D breast; 81.9 µM in the experiment on UACC-257 melanoma.
With `O[C@@H]1C[C@H]2N3CC[C@@]2(c2cc4c(cc2C3)OCO4)[C@H]2O[C@@H]12`, the TGI was above 100 µM in the experiment on HL-60(TB) leukemia; above 100 µM with A549 NSCLC; above 100 µM with DU-145 prostate; above 100 µM with HCT-116 colon; above 100 µM in the experiment with M14 melanoma; 0.041 µM in the experiment on SF-539 CNS. Also, the TGI in the experiment with SF-295 CNS, with UO-31 renal, with SNB-19 CNS, in the experiment on MCF7 breast, in the experiment on UACC-62 melanoma and with A498 renal was above 100 µM throughout. The TGI with OVCAR-3 ovarian, with NCI-H460 lung, in the experiment with SNB-75 CNS, with HOP-92 NSCLC and in the experiment with UACC-257 melanoma was above 100 µM in each case.
For `Clc1ccc(-c2ccc(-c3nn4c(CNc5ccccc5)nnc4s3)o2)c(Cl)c1`, the TGI in the experiment on HL-60(TB) leukemia was above 100 µM; in the experiment with A549 NSCLC it was above 100 µM; with DU-145 prostate it was above 100 µM; in the experiment on HCT-116 colon it was above 100 µM; in the experiment with M14 melanoma it was above 100 µM; in the experiment on SF-539 CNS it was 76.4 µM. The TGI in the experiment on SF-295 CNS, with UO-31 renal, in the experiment with SNB-19 CNS, in the experiment on SK-MEL-5 melanoma, in the experiment with A498 renal and in the experiment on OVCAR-3 ovarian was above 100 µM in each case. Besides, the TGI with NCI-H460 lung, in the experiment with SNB-75 CNS, with HOP-92 NSCLC, in the experiment with T-47D breast and in the experiment on UACC-257 melanoma was above 100 µM each time.
As for `COC(=O)CSC(=S)Nc1nnc(NC(=S)SCOC(C)=O)n1C(=S)SCC(=O)OC`, the TGI in the experiment on HL-60(TB) leukemia, in the experiment with DU-145 prostate, with HCT-116 colon, with M14 melanoma, in the experiment on SF-295 CNS and in the experiment with UO-31 renal was above 100 µM in each case. Further, the TGI in the experiment with SNB-19 CNS, in the experiment on SK-MEL-5 melanoma, in the experiment on MCF7 breast, in the experiment on UACC-62 melanoma, in the experiment on A498 renal and in the experiment on OVCAR-3 ovarian was above 100 µM each time. Moreover, the TGI with NCI-H460 lung and in the experiment with UACC-257 melanoma was above 100 µM each time.
Consider `CC(C)SC(NC(=O)C1C(C)(C)CCC1(C)C)C(=O)O` (stereo not given), for which the TGI with HL-60(TB) leukemia, with A549 NSCLC, in the experiment with DU-145 prostate, in the experiment on HCT-116 colon, with M14 melanoma and in the experiment with SF-539 CNS was above 100 µM in each case. For the same compound, the TGI with UO-31 renal, with SNB-19 CNS, in the experiment with SK-MEL-5 melanoma, in the experiment on MCF7 breast, in the experiment on UACC-62 melanoma and in the experiment with A498 renal was above 100 µM in each case. Besides, the TGI with NCI-H460 lung, with SNB-75 CNS and in the experiment on HOP-92 NSCLC was above 100 µM throughout.
